Measured values reported in patent publication US20010041801A1, “Water soluble fullerenes with antiviral activity” (The Regents of the University of California, priority 1994, published 2001).
pEC50, pIC50, pKi: −log10 of the molar value. Where “and” joins values, the source holds several entries; their conditions need not be identical. Equal values may be shown once. Read-outs that look alike come from different tables or passages of the source.

Key:
[1] = molecular target: HIV-1 RT (Human immunodeficiency virus type 1 group M subtype B, UniProt P04585); experiment: Inhibition of recombinant p66/51 HIV-1 RT, poly(rA)n.oligo(T)12-18 template-primer; assay type: biochemical; conditions: IC50 Polymerases: HIV-1 RT, cell-free; AZT-5′-triphosphate used for AZT
Protocol: The compound was also evaluated for its inhibitory effect on recombinant p66/51 HIV-1 RT by using poly(rA)n.oligo(T)12-18 as the template-primer as described in Schinazi, et al. (1992, supra). Compound 2c was active against this enzyme, with a median inhibitory concentration (1C50) of 4.6 μM. This value was of the same order of magnitude as that noted for the antiviral assays (TABLE 3). […] AZT-5′ triphosphate and phosphonoformate (PFA), used as positive controls, were effective and selective against HIV-1 RT.

[2] = test system: nevirapine (BI-RG587)-resistant HIV-1; experiment: Susceptibility of nevirapine-resistant HIV-1; assay type: cell-based; conditions: Human immunodeficiency virus 1, read-out: EC50 against nevirapine-resistant HIV-1
[3] = molecular target: T1, recombinant HIV-1 protease (Human immunodeficiency virus type 1 group M subtype B, UniProt P04585); experiment: Antiprotease assay, method similar to Ido et al.; assay type: biochemical
T1 construct: HIV produces a small, dimeric aspartyl protease which specifically cleaves the polyprotein precursors
Protocol: Routine protocols can be followed to determine whether a derivatized buckministerfullerene compound has virucidal properties. […] This method is similar to that described by Ido, et al., J. Biol. Chem., 266:24359-24366, 1991). Inhibition is time dependent, and preincubation with the inhibitor results in greater enzyme inhibition, indicating a slow binding process
Compound 2c also has antiprotease activity. […] The method used for the assay was similar to that described by Ido, et al., J. Biol. Chem., 266:24359-24366, 1991).

[4] = test system: HIV-1; experiment: HIV-1 p24 antigen assay in supernatants of acutely infected PBMC; assay type: cell-based; conditions: Human immunodeficiency virus 1; PBMC acutely infected with HIV-1
Protocol: To determine whether the fullerene may bind tightly to inactivate the viral RT, we also measured levels of HIV-1 p24 in supernatants of treated and untreated cultures. Clarified supernatants were treated with Triton X-100 (Sigma Chemicals, St. Louis, Mo.) and tested for HIV-1 antigen by immunocapture with a commercial kit (Abbott, North Chicago, Ill.).

[5] = test system: nevirapine (BI-RG587)-susceptible HIV-1; experiment: Susceptibility of nevirapine-susceptible HIV-1; assay type: cell-based; conditions: Human immunodeficiency virus 1, read-out: EC50 against nevirapine-susceptible HIV-1
[6] = molecular target: T2, HIV-1 protease (HIVP) (Human immunodeficiency virus type 1 group M subtype B, UniProt P04585); experiment: Inhibition of HIV-1 protease, HPLC assay with kinetic analysis; assay type: biochemical
T2 construct: HIV produces a small, dimeric aspartyl protease which specifically cleaves the polyprotein precursors
Protocol: The ability of compound 2c to inhibit the HIVP was assayed with an HPLC method as described in R. L DesJarlais, et al., Proc. Natl. Acad. Sci U.S.A., 87:6644-6648, 1990. […] Assays were performed in buffer containing 50 mM NaAc pH 5.5, 1.0 M NaCl, 5% glycerol, 1% DMSO, and 2 mM EDTA. Inhibitor was preincubated with ≈0.05 μg of enzyme for 5 minutes at which time the reaction was initiated by addition of substrate. The reaction was quenched at <15% product formation by the addition of 15 μL of 10% TFA. The cleavage products of the substrate peptide H-Lys-Ala-Arg-Val-Tyr-p-nitro-Phe-Glu-Ala-Ile-NH2 (made by Bachem, Philadelphia, Pa.) were assayed by HPLC using a 10-40% (acetonitrile, 0.1% TFA): (water, 0.1% TFA) gradient over 30 minutes at 1 mL/minute. Product was quantitated by integration of peak areas followed by comparison to product standard curves.
Determination of kinetic constants was done with the program KinetAsyst (IntelliKinetics) by fitting of the data to the equation […]] which describes competitive inhibition.

[7] = Solubility in water; conditions: pH≧7
[8] = test system: HIV-1 HI 12.2; experiment: Susceptibility of pretherapy AZT-susceptible isolate in acutely infected PBMC; assay type: cell-based; conditions: Human immunodeficiency virus 1, PBMC, read-out: EC50 against pretherapy isolate
Text: (§1) The availability of AZT-resistant and -susceptible viruses allowed us to evaluate the compounds of this invention for their susceptibilities to these viruses in acutely infected PBMC in two experiments. […] In the same assay, the EC50 for TIBO [(+)-(5s)-4,5,6,7-tetrahydro-5methyl-6-(3-methyl-2-butenyl)imidazo(4,5,1-jk)(1,4)benzodiazepin-2(1 H)-thione] R82150 increased >500-fold (data not shown).

[9] = test system: HIV-1G910-6; experiment: microbe, parasite or virus in culture; assay type: cell-based
Text: as §1

O=C(O)CCC(=O)NCCc1ccc(C2(c3ccc(CCNC(=O)CCC(=O)O)cc3)C34c5c6c7c8c9c%10c(c%11c%12c3c3c5c5c%13c6c6c7c7c9c9c%14c%10c%10c%11c%11c%12c%12c3c3c5c5c%13c%13c6c6c7c9c7c9c%14c%10c%10c%11c%11c%12c3c3c5c5c%13c6c7c6c9c%10c%11c3c56)C824)cc1 [Compound 2c, bis(monosuccinimide) derivative of p,p′-bis(2-aminoethyl)diphenyl-C60]
pIC50 [1]: 5.34 and ~5.30
pEC50 [2]: 5.06
pIC50 [3]: 5.70
pEC50 [4]: 4.30
pEC50 [5]: 6.28
pKi [6]: 5.28
mode of inhibition ([6]; kinetic analysis of HIVP): competitive
solubility in water [7]: soluble
pEC50 [8]: 5.10 to 5.70
pEC50 ([9]; Human immunodeficiency virus 1, PBMC, read-out: EC50 against AZT-resistant HIV-1, acutely infected PBMC / lymphocytes): 5.55
pEC50 ([9]; read-out: EC50 against AZT-resistant HIV-1, acutely infected PBMC / lymphocytes): 5.52
